Columns and labels:
[1] = biological target: T1, 5-HT3 receptor (Rattus norvegicus, UniProt P35563); experiment: 5-HT3 radioligand receptor binding assay ([3H]-GR65630, rat brain cortex membranes)
T1 construct: Brain cortices were obtained from male rats and a membrane fraction prepared by standard techniques; from tissue; host or cells: rat brain cortex membranes
T1 sequence (P35563 24-483): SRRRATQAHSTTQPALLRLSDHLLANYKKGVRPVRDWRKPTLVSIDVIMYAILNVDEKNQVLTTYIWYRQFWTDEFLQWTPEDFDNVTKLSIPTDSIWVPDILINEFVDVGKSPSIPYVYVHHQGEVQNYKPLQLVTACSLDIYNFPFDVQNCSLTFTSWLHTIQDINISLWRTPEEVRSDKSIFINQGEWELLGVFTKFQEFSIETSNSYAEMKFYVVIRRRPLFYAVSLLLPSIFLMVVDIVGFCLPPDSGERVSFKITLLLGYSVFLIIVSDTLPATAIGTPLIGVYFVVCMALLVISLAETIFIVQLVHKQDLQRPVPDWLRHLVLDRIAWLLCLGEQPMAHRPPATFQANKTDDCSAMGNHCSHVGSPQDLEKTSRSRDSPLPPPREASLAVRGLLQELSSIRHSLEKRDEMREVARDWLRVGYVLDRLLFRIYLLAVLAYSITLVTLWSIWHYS
Protocol: (§1) (Baxter et al., Naunyn Schmied Arch. Pharmacol, 1991, 343, 439). […] One with skill in the art could determine the activity of the compounds of the present invention using the methodology of these assays, described herein, without undue experimentation.
Procedure: GR65630 binds to the 5-HT3 receptor. Brain cortices were obtained from male rats and a membrane fraction prepared by standard techniques. 0.04 mg of membrane prep was incubated with 0.2 nM [^3 H]-GR65630 for 66 minutes at 22° C. […] Membranes were filtered and washed 3 times and the filters were counted to determine [^3 H]-GR65630 specifically bound. (Kilpatrick G. J., Jones B. J. and Tyers M. B., Identification and Distribution of 5-HT3 Receptors in Rat Brain Using Radioligand Binding Assay, Nature, 330, 746-748 (1987)).

[2] = biological target: T2, 5-HT4 receptor (Rattus norvegicus, UniProt Q62758); format: cell-based; details: Table I; tissues from 5 rats; carbachol 3 μM; read-out: 5-HT4 Agonism (Rat TMM) In Vitro Assay: EC50 values
T2 construct: The inner tunica muscularis mucosa was mounted under 0.2-0.3 g of tension in a tissue bath; from tissue; host or cells: rat intrathoracic oesophagus, tunica muscularis mucosae
From the text: as §1
One 2 cm segment of intrathoracic esophagus proximal to the diaphragm was removed from male rats, weighing approximately 300 gm, and the outer muscle layers removed. The inner tunica muscularis mucosa was mounted under 0.2-0.3 g of tension in a tissue bath containing oxygenated Tyrode's solution at 37° C. […] Following a 30 min equilibrium period, tissues were isometrically contracted with carbachol (3 μM) to obtain a tonic contraction. A stable plateau was obtained within 20 min when test compound was added cumulatively to relax the muscle strip. EC50 values were obtained for each agonist in tissues from 5 rats.

[3] = test system: 5-HT4 receptors; details: Craig and Clarke; cited from earlier work
[4] = test system: 5-HT4 receptor; details: Dumuis et al 1989; mouse embryonic colliculi neurons; cited from earlier work
[5] = test system: myenteric neurons; details: Nemeth and Gullikson; cited from earlier work
[6] = test system: antroduodenal motility; details: Van Nueten et al 1989, cited from earlier work
[7] = test system: gastric emptying; details: cited from earlier work; for gastric emptying: Gidda et al 1988; for gastric emptying rates in vivo: Buchheit et al 1985
[8] = test system: GI transit; details: cited from earlier work
[9] = test system: guinea pig stomach strips; details: cited from earlier work; for guinea pig stomach muscle strip contraction in vitro: Buchheit et al 1985
[10] = test system: charcoal meal transit; details: Kimura et al 1989; cited from earlier work
[11] = test system: GI tract; details: various animal models; cited from earlier work
[12] = test system: 5-HT3-mediated Bezold Jarisch reflex; details: in vivo; cited from earlier work

T2 sequence (Q62758 whole entry): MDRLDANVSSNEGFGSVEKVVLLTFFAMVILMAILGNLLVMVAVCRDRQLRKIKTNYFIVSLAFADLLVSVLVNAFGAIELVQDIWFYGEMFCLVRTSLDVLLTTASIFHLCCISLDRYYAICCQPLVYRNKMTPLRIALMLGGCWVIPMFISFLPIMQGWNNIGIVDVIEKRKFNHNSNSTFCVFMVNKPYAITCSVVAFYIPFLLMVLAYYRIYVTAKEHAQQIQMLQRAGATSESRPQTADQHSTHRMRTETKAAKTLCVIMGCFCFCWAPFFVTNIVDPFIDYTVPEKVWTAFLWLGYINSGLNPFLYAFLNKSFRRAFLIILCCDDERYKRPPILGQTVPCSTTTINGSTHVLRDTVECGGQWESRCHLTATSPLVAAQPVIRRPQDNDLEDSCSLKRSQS

Compound: COc1cc(N)c(Cl)cc1C(=O)NC[C@@H]1[C@H]2C[C@H]3C[C@@H]1N(C3)C2 (relative stereo) [Example 1, 4-amino-5-chloro-N-(hexahydro-2β,6β-methano-1H,7aα-pyrrolizin-1β-ylmethyl)-2-methoxybenzamide]
- Ki ([1]; read-out: Ki, effect of compounds on [3H]-GR65630 bound, Table II, 0.2 nM [3H]-GR65630, 66 minutes, 22° C.): 5.5 nM
- EC50 [2]: 175 nM

Compound: COc1cc(N)c(Cl)cc1C(=O)NC[C@@H]1[C@@H]2C[C@@H]3C[C@H]1N(C3)C2 (relative stereo) [Example 2, 4-amino-5-chloro-N-(hexahydro-2β,6β-methano-1H,7aα-pyrrolizin-1β-ylmethyl)-2-methoxybenzamide]
- EC50 [2]: 415 nM

Compound: COc1cc(N)c(Cl)cc1C(=O)NC1CCN2CCCC1C2 (stereo not shown) [BRL-24924]
- peristaltic reflex evoked, mediated through agonism at 5-HT4 receptors [3]: mediated through agonism at 5-HT4 receptors
- agonist activity at 5-HT4 receptor [4]: agonist activity
- ability to depolarize myenteric neurons versus 5-HT3 antagonism [5]: unrelated to their properties of 5-HT3 antagonism

Compound: COc1cc(N)c(Cl)cc1C(=O)NC1CCN(CCCOc2ccc(F)cc2)CC1OC (stereo not shown) [Cisapride]
- agonist activity at 5-HT4 receptor [4]: agonist activity
- antroduodenal motility in dogs [6]: enhanced antroduodenal motility in dogs
- ability to depolarize myenteric neurons versus 5-HT3 antagonism [5]: unrelated to their properties of 5-HT3 antagonism

Compound: COc1cc(N)c(Cl)cc1C(=O)NC[C@@H]1[C@H]2C[C@H]3C[C@@H]1N(C3)C2 [Example 3, 4-amino-5-chloro-N-(hexahydro-2β,6β-methano-1H,7aα-pyrrolizin-1S,1α-ylmethyl)-2-methoxybenzamide]
- EC50 [2]: 140 nM

Compound: COc1cc(N)c(Cl)cc1C(=O)NC[C@H]1[C@@H]2C[C@@H]3C[C@H]1N(C3)C2 [Example 4, 4-amino-5-chloro-N-(hexahydro-2β,6β-methano-1H,7aα-pyrrolizin-1R,1α-ylmethyl)-2-methoxybenzamide]
- EC50 [2]: 274 nM

Compound: Cc1nccn1CC1CCc2c(c3ccccc3n2C)C1=O (stereo not shown) [GR38032]
- gastric emptying [7]: enhanced gastric emptying
- GI transit in man ([8]; Gore et al 1990): failed to accelerate GI transit
- colonic transit in man ([8]; Gore et al 1990): slowed colonic transit in man
- small intestinal transit times or mouth-to-cecum transit times ([8]; Talley et al 1989, man): did not alter small intestinal transit times or mout-to-cecum transit times

Compound: CN1[C@@H]2CC[C@H]1C[C@@H](OC(=O)c1c[nH]c3ccccc13)C2 [ICS 205-930]
- gastric emptying rates in vivo [7]: increases in gastric emptying rates in vivo
- gastric emptying [7]: enhanced gastric emptying
- effect on the responses to cisapride when coadministered ([6]; dogs): did not affect the responses to cisapride
- guinea pig stomach muscle strip contraction in vitro [9]: enhanced guinea pig stomach muscle strip contraction in vitro

Compound: CN1[C@@H]2CC[C@H]1C[C@@H](OC(=O)c1cc(Cl)cc(Cl)c1)C2 [MDL 72222]
- gastric emptying rates in vivo [7]: increases in gastric emptying rates in vivo
- guinea pig stomach muscle strip contraction in vitro [9]: enhanced guinea pig stomach muscle strip contraction in vitro

Compound: Cc1nccn1CC1CCc2c(c3ccccc3n2C)C1=O.Cl.O.O (stereo not shown) [SN-307]
- transit of a charcoal meal in mice [10]: enhanced transit of a charcoal meal in mice

Compound: NCCc1c[nH]c2ccc(O)cc12 [Serotonin, 5-hydroxytryptamine]
- peristaltic reflex evoked, mediated through agonism at 5-HT4 receptors [3]: mediated through agonism at 5-HT4 receptors
- peristalsis in the GI tract [11]: promote peristalsis in the GI tract

Compound: Cc1nc[nH]c1CCC(=O)c1cn(C)c2ccccc12 [[^3 H]-GR65630]
- % Specific Binding ([1]; radioligand, non-specific binding with 1 uM ICS 205-930): 70%
- Bmax ([1]; radioligand, rat brain cortex membranes): 154 fmol/mg protein

Compound: CCN(CC)CCNC(=O)c1cc(Cl)c(N)cc1OC [metoclopramide]
- block of the 5-HT3-mediated Bezold Jarisch reflex [12]: blocks the 5-HT3-mediated Bezold Jarisch reflex
- gastric emptying rates in vivo [7]: increases in gastric emptying rates in vivo
- guinea pig stomach muscle strip contraction in vitro [9]: enhanced guinea pig stomach muscle strip contraction in vitro
- electrical-field stimulated contractions in guinea pig stomach strips ([9]; Gunning and Naylor 1985): enhanced electrical-field stimulated contractions in guinea pig stomach strips

Compound: COc1cc(N)c(Cl)cc1C(=O)NC1CN2CCC1CC2 (stereo not shown) [zacopride]
- gastric emptying [7]: enhanced gastric emptying
